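The compound was tested at five concentrations on cells cultured in 96-well plates, with a 48-hour exposure period. Definition used: TGI = concentration required for complete inhibition of growth.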
What was measured:
Experiment in all cases: NCI tumour cell line growth inhibition, 48 h
DU-145 prostate = tested on: DU-145 prostate
RPMI-8226 leukemia = tested on: RPMI-8226 leukemia
K-562 leukemia = tested on: K-562 leukemia
SK-OV-3 ovarian = tested on: SK-OV-3 ovarian
SF-539 CNS = tested on: SF-539 CNS
HOP-62 NSCLC = tested on: HOP-62 NSCLC
OVCAR-5 ovarian = tested on: OVCAR-5 ovarian
IGROV1 ovarian = tested on: IGROV1 ovarian
EKVX NSCLC = tested on: EKVX NSCLC
MDA-N = tested on: MDA-N
M14 melanoma = tested on: M14 melanoma
HCC-2998 colon = tested on: HCC-2998 colon
UACC-257 melanoma = tested on: UACC-257 melanoma
MDA-MB-435 = tested on: MDA-MB-435
SK-MEL-2 melanoma = tested on: SK-MEL-2 melanoma
NCI/ADR-RES ovarian = tested on: NCI/ADR-RES ovarian
SN12C renal = tested on: SN12C renal
MALME-3M melanoma = tested on: MALME-3M melanoma
TK-10 renal = tested on: TK-10 renal

Row | SMILES | TGI (DU-145 prostate) | TGI (RPMI-8226 leukemia) | TGI (K-562 leukemia) | TGI (SK-OV-3 ovarian) | TGI (SF-539 CNS) | TGI (HOP-62 NSCLC) | TGI (OVCAR-5 ovarian) | TGI (IGROV1 ovarian) | TGI (EKVX NSCLC) | TGI (MDA-N) | TGI (M14 melanoma) | TGI (HCC-2998 colon) | TGI (UACC-257 melanoma) | TGI (MDA-MB-435) | TGI (SK-MEL-2 melanoma) | TGI (NCI/ADR-RES ovarian) | TGI (SN12C renal) | TGI (MALME-3M melanoma) | TGI (TK-10 renal)
1 | c1ccc(C(=NNc2nc3ccccc3[nH]2)c2ccccn2)nc1 | > 100 µM | 1.02 µM | > 100 µM | 0.828 µM | 0.546 µM | 2.62 µM | 5.18 µM | 2.64 µM | 3.38 µM | > 100 µM | 1.84 µM | 28.6 µM | 1.92 µM | > 74 µM | > 100 µM | 0.583 µM | – | – | –
2 | O=C1CCC2=C(CCC2)N1CCc1ccc2c(c1)OCO2 | > 100 µM | 45.1 µM | > 100 µM | > 100 µM | > 100 µM | > 100 µM | > 100 µM | > 100 µM | > 100 µM | > 100 µM | > 100 µM | > 100 µM | > 100 µM | – | > 100 µM | > 100 µM | > 100 µM | > 100 µM | > 100 µM
3 | O=C1C=CC2(O[C@@H](Cc3ccccc3)[C@H](Cc3ccccc3)O2)C(SC(=O)c2ccccc2)C1 (some centres not stated) | 11.8 µM | 1.24 µM | 89.4 µM | 8.04 µM | 3.04 µM | 2.68 µM | 1.74 µM | 2.54 µM | – | 5.22 µM | 2.99 µM | – | 2.55 µM | 5.46 µM | 3.46 µM | 4.06 µM | 3.97 µM | 5.06 µM | 4.09 µM
4 | CCOC(OCC)C(CCc1ccccc1)c1c(N)nc(N)[nH]c1=O (configuration not stated) | > 100 µM | > 100 µM | 84.7 µM | 90.7 µM | > 100 µM | > 100 µM | 73.3 µM | > 100 µM | 22.3 µM | – | > 100 µM | > 100 µM | > 100 µM | > 100 µM | > 100 µM | > 100 µM | > 100 µM | > 100 µM | > 100 µM
5 | CC(=O)c1ccc2c(c1)oc(=O)n2CCN(C)C | – | – | – | > 100 µM | > 100 µM | > 100 µM | > 100 µM | > 100 µM | > 100 µM | – | > 100 µM | – | > 100 µM | > 100 µM | > 100 µM | > 100 µM | – | > 100 µM | > 100 µM
6 | CC1NOC(NS(=O)(=O)c2ccc(N=Nc3c(O)c(C(=O)O)cc4ccccc34)cc2)C1C (configuration not stated) | – | > 100 µM | > 100 µM | > 100 µM | > 100 µM | > 100 µM | > 100 µM | > 100 µM | > 100 µM | – | > 100 µM | > 100 µM | > 100 µM | > 100 µM | > 100 µM | > 100 µM | – | > 100 µM | > 100 µM
7 | CCCCCCC(CCl)c1sc(-c2csc(CCNC(=O)OC(C)(C)C)n2)nc1C(=O)OC (configuration not stated) | > 100 µM | > 100 µM | > 100 µM | 88.2 µM | 44.4 µM | > 100 µM | > 100 µM | > 100 µM | > 100 µM | 87.9 µM | – | 62.6 µM | 67.6 µM | 30.4 µM | 29.6 µM | 14.8 µM | 38.9 µM | – | > 100 µM
8 | O=C(Nc1ccc2ccccc2c1)Nn1cnnc1 | > 100 µM | > 100 µM | > 100 µM | > 100 µM | > 100 µM | > 100 µM | > 100 µM | > 100 µM | > 100 µM | > 100 µM | > 100 µM | > 100 µM | > 100 µM | > 100 µM | > 100 µM | – | – | > 100 µM | > 100 µM
9 | Cc1cc(NC2=NCCO2)c2c(c1C)CCCC2 | > 100 µM | 45.3 µM | – | > 100 µM | 22.6 µM | 32 µM | 57.1 µM | > 100 µM | > 100 µM | – | 28.1 µM | 29 µM | 39.1 µM | 39.5 µM | – | 73.1 µM | 66.3 µM | 25.9 µM | > 100 µM
10 | CCOC(=O)N(CC)c1c(C(F)(F)F)cc(-c2ccccc2)[nH]c1=O | > 100 µM | 39.3 µM | > 100 µM | > 100 µM | – | > 100 µM | > 100 µM | > 100 µM | 95.1 µM | 53.9 µM | > 100 µM | > 100 µM | > 100 µM | 56.7 µM | > 100 µM | > 100 µM | > 100 µM | – | > 100 µM
11 | COC(=O)C1=C(OC(=O)/C(=C/c2ccc(Cl)cc2)c2ccccc2)C(C(=O)OC)[C@@]2(O)[C@@H](C(=O)OC)[C@H](C)C[C@@H]1[C@@H]2C(=O)OC (some centres not stated) | > 100 µM | > 100 µM | > 100 µM | > 100 µM | > 100 µM | > 100 µM | > 100 µM | > 100 µM | > 100 µM | – | > 100 µM | > 100 µM | > 100 µM | > 100 µM | > 100 µM | > 100 µM | > 100 µM | > 100 µM | > 100 µM
12 | N=C(N)n1[nH]c2c(c1=O)CCC2 | > 100 µM | – | > 100 µM | > 100 µM | > 100 µM | > 100 µM | > 100 µM | > 100 µM | – | > 100 µM | > 100 µM | > 100 µM | > 100 µM | > 100 µM | > 100 µM | > 100 µM | > 100 µM | > 100 µM | > 100 µM
13 | Cc1nnc(N)nc1/C=C\c1cccs1 | > 100 µM | 55.4 µM | 59.7 µM | > 100 µM | – | 38.5 µM | 68.3 µM | 28.7 µM | 55.6 µM | – | 36.9 µM | 30.9 µM | > 100 µM | 74.9 µM | 30.5 µM | 76.6 µM | – | 29.4 µM | > 100 µM
14 | Cc1cc2nc3n(c2cc1C)C(c1c(F)cccc1F)SC3 (configuration not stated) | – | 58.5 µM | 63.9 µM | > 100 µM | 38.2 µM | 72 µM | 43 µM | > 10 µM | 75.4 µM | – | 40.8 µM | 47.8 µM | > 100 µM | 30.9 µM | 39.7 µM | 34.6 µM | 41.9 µM | 65.1 µM | > 100 µM
15 | CC(=O)OCC1OC(OCC2OC(N3C(=S)N[C@H]([C@@H](O)[C@H](O)[C@H](O)CO)[C@H]3O)C(OC(C)=O)C(OC(C)=O)C2OC(C)=O)C(OC(C)=O)C(OC(C)=O)C1OC(C)=O (some centres not stated) | > 100 µM | > 100 µM | > 100 µM | > 100 µM | > 100 µM | > 100 µM | > 100 µM | – | – | > 100 µM | > 100 µM | > 100 µM | – | > 100 µM | > 100 µM | > 100 µM | > 100 µM | > 100 µM | > 100 µM
16 | Brc1cccc(C2(CCCC3(c4cccc(Br)n4)OCCO3)OCCO2)n1 | – | > 100 µM | > 100 µM | > 100 µM | > 100 µM | > 100 µM | > 100 µM | > 100 µM | > 100 µM | > 100 µM | > 100 µM | > 100 µM | > 100 µM | > 100 µM | > 100 µM | > 100 µM | > 100 µM | – | > 100 µM
17 | CC(C)(C)OC(=O)NC(CCCCNC(=O)OCc1ccccc1)C(=O)NC(CCCCNC(=O)OCc1ccccc1)C(=O)ON1C(=O)CCC1=O (configuration not stated) | – | > 100 µM | > 100 µM | – | – | > 100 µM | > 100 µM | > 100 µM | > 100 µM | > 100 µM | > 100 µM | > 100 µM | > 100 µM | – | > 100 µM | – | > 100 µM | > 100 µM | > 100 µM
18 | O=C(CCc1cc(O)cc(O)c1)NCCc1ccc(O)c(O)c1 | > 100 µM | > 100 µM | – | > 100 µM | > 100 µM | > 100 µM | > 100 µM | > 100 µM | > 100 µM | > 100 µM | > 100 µM | > 100 µM | > 100 µM | 52.8 µM | > 100 µM | > 100 µM | > 100 µM | – | > 100 µM
19 | Sc1nnc(-c2ccccc2Nc2ccccc2-c2nnc(S)n2-c2ccccc2)n1-c1ccccc1 | > 100 µM | 48 µM | > 100 µM | – | > 100 µM | > 100 µM | > 100 µM | 42.2 µM | 97.9 µM | 85.3 µM | > 100 µM | > 100 µM | > 100 µM | 53 µM | 84.2 µM | > 100 µM | 72.9 µM | – | > 100 µM
20 | NCCCCNCCCN | > 100 µM | – | > 100 µM | > 100 µM | > 100 µM | > 100 µM | > 100 µM | > 100 µM | > 100 µM | – | > 100 µM | > 100 µM | > 100 µM | > 100 µM | > 100 µM | > 100 µM | – | > 100 µM | > 100 µM
21 | CC(O)(c1ccccc1)c1nccc2ccccc12 (configuration not stated) | > 100 µM | > 100 µM | > 100 µM | > 100 µM | – | > 100 µM | > 100 µM | > 100 µM | – | 53.7 µM | > 100 µM | > 100 µM | > 100 µM | 39.2 µM | – | > 100 µM | > 100 µM | > 100 µM | > 100 µM
22 | CCCCNC(=S)/N=C/c1c(O)c2ccccc2oc1=O | > 100 µM | – | – | > 100 µM | > 100 µM | > 100 µM | > 100 µM | > 100 µM | > 100 µM | > 100 µM | > 100 µM | > 100 µM | > 100 µM | > 100 µM | > 100 µM | > 100 µM | > 100 µM | – | > 100 µM

Reference: PubChem BioAssay (NCI)
